Source: US11319303B2 (WIGEN BIOMEDICINE TECHNOLOGY (SHANGHAI) CO., LTD., priority 2017, dated 2022)
Counter-ions that a name gives are not always drawn.

Each compound was assayed against LC3B (Homo sapiens, UniProt Q9GZQ8) (assay: Fluorescence Polarization (FP) Assay: displacement of FITC-labeled peptide from GST-LC3B). Details: Fluorescence Polarization assay; GST-LC3B 180 nM, FITC-labeled peptide 18 nM, 25° C.; read-out: IC50.
Assay type: binding
Experimental: The compounds of the present invention for regulating the autophagy-related protein LC3B were tested by Fluorescence Polarization (FP) Assay.
Fluorescence Polarization (FP) Assay Test
`O=C1CCN(c2ccccc2)C(=O)/C1=C\O` [Compound 450, 3-(hydroxymethylene)-N-phenylpiperidine-2,4-dione] was tested, and the IC50 was 15 to 100 µM. For `O=C1CC(c2ccccc2)C(F)C(=O)/C1=C/O` (centres unmarked) [Compound 451, 2-(hydroxymethylene)-4-fluoro-5-(phenyl)cyclohexane-1,3-dione], the IC50 was 3 to 15 µM. Compound `O=C1CC(c2ccccc2)C(F)(F)C(=O)/C1=C/O` (centres unmarked) [Compound 452, 2-(hydroxymethylene)-4,4-difluoro-5-(phenyl)cyclohexane-1,3-dione] has an IC50 of 3 to 15 µM. In the case of `O=C1CC(c2cccs2)CC(=O)C1=CO` (centres unmarked) [Compound 453, 2-(hydroxy-methylene)-5-(2-thiophen)cyclo-hexane-1,3-dione lithium salt], the IC50 is reported as 3 to 15 µM. `O=C1CC(c2cccs2)CC(=O)C1=CO` (centres unmarked) [Compound 455, 2-(hydroxy-methylene)-5-(2-thiophen)cyclo-hexane-1,3-dione potassium salt] gave an IC50 of 3 to 15 µM. In the case of `O=C1CC(c2ccsc2)CC(=O)C1=CO` (centres unmarked) [Compound 456, 2-(hydroxy-methylene)-5-(3-thiophen)cyclo-hexane-1,3-dione lithium salt], the IC50 is reported as 3 to 15 µM. `O=C1CC(c2ccsc2)CC(=O)C1=CO` (centres unmarked) [Compound 457, 2-(hydroxy-methylene)-5-(3-thiophen)cyclo-hexane-1,3-dione sodium salt] was tested, and the IC50 was 3 to 15 µM. In the case of `O=C1CC(c2ccsc2)CC(=O)C1=CO` (centres unmarked) [Compound 458, 2-(hydroxy-methylene)-5-(3-thiophen)cyclo-hexane-1,3-dione potassium salt], the IC50 is reported as 3 to 15 µM. `O=C1CC(c2cccc3[nH]ccc23)CC(=O)C1=CO` (centres unmarked) [Compound 459, 2-(hydroxy-methylene)-5-(1H-indol-4-yl)cyclo-hexane-1,3-dione lithium salt] showed an IC50 of under 3 µM. `O=C1CC(c2cccc3[nH]ccc23)CC(=O)C1=CO` (centres unmarked) [Compound 460, 2-(hydroxy-methylene)-5-(1H-indol-4-yl)cyclo-hexane-1,3-dione sodium salt] gave an IC50 of under 3 µM. `O=C1CC(c2cccc3[nH]ccc23)CC(=O)C1=CO` (centres unmarked) [Compound 461, 2-(hydroxy-methylene)-5-(1H-indol-4-yl)cyclo-hexane-1,3-dione potassium salt] showed an IC50 of under 3 µM.
